Values joined by “and” are separate entries in the source; they are usually repeats but may differ in a detail not shown here. Equal entries are not always repeated.
These molecules were tested against SARS-CoV-2 Main Protease (SARS-CoV-2) (UniProt P0DTD1).
O=C(Nc1nncn1C1CC1)C1CCS(=O)(=O)c2ccccc21 (stereo not given) gave an IC50 of 68.9 µM. In the case of O=C(Cn1ccc(=O)[nH]c1=O)N1CCN(c2ccccc2O)CC1, the IC50 is reported as over 99.5 µM. O=C1OC(c2cccs2)=N/C1=C\c1ccc(N2CCOCC2)s1 was tested, and the IC50 was 0.696 µM. Molecule O=C(Nc1cncc2ccccc12)C(NC[C@@H]1CC[C@H](C(=O)N2CCCC2)O1)c1cccc(Cl)c1 (stereo in doubt) has an IC50 of 2.77 µM. In the case of COc1ccccc1OCCNC(=O)c1cc(=O)cc[nH]1, the IC50 is reported as over 99.5 µM. O=C(Nc1cnc2nccn2c1)c1cn2c(Br)cnc2s1 showed an IC50 of over 99.5 µM. Work on O=c1[nH]c(-c2nnc[nH]2)nc2cc(-c3ccccc3Cl)sc12 yielded an IC50 of over 99.5 µM. In the case of O=C(Nc1cncc2c1CCCC2)[C@@H]1CNS(=O)(=O)c2ccc(Cl)cc21 (stereo in doubt), the IC50 is reported as 0.205 µM. Molecule N#Cc1cnn(C(=O)c2cccs2)c1C1CC1 has an IC50 of 3.24 µM. Cc1ccncc1NC(=O)Cc1cc(Cl)cc(C2COC2)c1 gave an IC50 of 19.1 µM. With O=C(Nc1cccnc1)[C@@H](c1ccccc1)N1Cc2ccccc2C1=O (stereo in doubt) the IC50 was over 99.5 µM. Cc1ccc(-n2c(C)c(C)n3c4c(=O)n(CCCO)c(=O)n(C)c4nc23)cc1Cl was tested, and the IC50 was over 99.5 µM. In the case of O=C(NCC1=[SH]C=CC1)[C@@H](c1ccccc1)N1Cc2ccccc2C1=O (stereo in doubt), the IC50 is reported as over 99.5 µM. For N#CC1(CS(=O)(=O)N2Cc3ccc(Cl)cc3[C@H](C(=O)Nc3cncc4ccccc34)C2)CCOCC1 (stereo in doubt), the IC50 was 0.06 µM and 0.0875 µM. Work on Cc1ccc(-n2ncc3c(=O)n(CC(N)=O)cnc32)cc1C yielded an IC50 of over 99.5 µM. For O=C(Cc1cc(Cl)cc(Nc2nc(Cl)nc3nc[nH]c23)c1)Nc1cncc2ccccc12, the IC50 was 2.37 µM. CC(=O)N(CC(=O)Nc1ccc(F)c(Cl)c1)c1cccc(C#N)c1 gave an IC50 of over 99.5 µM. Molecule Cc1cc2c(cc1C)C(C(=O)N1CCCCC1c1cn[nH]c1)CO2 (stereo not given) has an IC50 of over 99.5 µM. N#Cc1cc(Cl)cc(NC(=O)Nc2cccnc2)c1 was tested, and the IC50 was over 99 µM. Cc1ccc(C)c(S(=O)(=O)N2CCN(C(=O)CCl)CC2)c1 gave an IC50 of 14.2 µM. Molecule CC1(C(=O)Nc2cncc3c2CCCC3)CNS(=O)(=O)c2ccc(Cl)cc21 (stereo not given) has an IC50 of over 99.5 µM. Molecule O=C(Cc1cc(Cl)cc(Nc2cc(C(F)(F)F)ccn2)c1)Nc1cncc2ccccc12 has an IC50 of 1.84 µM. COc1ccc2c(NC(=O)C3CCOc4ccc(Cl)cc43)[nH]nc2c1 (stereo not given) was tested, and the IC50 was over 99.5 µM. Molecule COc1ccccc1CC(=O)Nc1cncc2ccccc12 has an IC50 of 35 µM. With O=CC(=O)N1CCN(Cc2cccc(Cl)c2)CC1 the IC50 was 56.6 µM and 49.6 µM. CNC(=O)CN1CC2(CC(=O)N(c3cncc4ccccc34)C2=O)c2cc(Cl)ccc2C1=O (stereo not given) gave an IC50 of 0.26 µM. With Cc1cc2c(N3CCc4[nH]c5ccccc5c4C3)nccn2n1 the IC50 was over 99.5 µM. In the case of O=C(Cc1cc(Cl)cc(Nc2cc(Cl)cnc2Br)c1)Nc1cncc2ccccc12, the IC50 is reported as 1.99 µM. Work on COc1ccc2cncc(NC(=O)C3CCNc4cc(Cl)c(Cl)cc43)c2c1 (stereo not given) yielded an IC50 of 0.131 µM. O=C(CCl)Nc1nc2c(S(=O)(=O)NCCc3ccccc3)cccc2s1 was tested, and the IC50 was 5.03 µM and 14.2 µM and 37.5 µM. CC(C)(C)c1ccc(N(C(=O)c2cocn2)C(C(=O)NCCc2cccc(F)c2)c2cc(=O)[nH]c3ccccc23)cc1 (stereo not given) showed an IC50 of 1.16 µM. With CNC(=O)CN1CC(C)(C(=O)Nc2cncc3cc(F)ccc23)c2cc(Cl)ccc2S1(=O)=O (stereo not given) the IC50 was 0.248 µM. For O=C(Cc1cc(Cl)cc(-n2c(C3CCNCC3)nc3ccccc32)c1)Nc1cncc2ccccc12, the IC50 was 2.24 µM. Work on O=C(Cc1cc(Cl)cc(N2CCn3c(nnc3C(F)(F)F)C2)c1)Nc1cncc2ccccc12 yielded an IC50 of 2.01 µM. In the case of O=C(CCl)N1CCN(S(=O)(=O)c2cccc(F)c2)CC1, the IC50 is reported as 4.1 µM and 5.05 µM and 2.38 µM. In the case of O=C(CCl)N1CCCN(S(=O)(=O)c2cc(F)ccc2F)CC1, the IC50 is reported as 12.1 µM. O=C(Cc1cc(Cl)cc(Nc2ccccc2I)c1)Nc1cncc2ccccc12 gave an IC50 of 2.17 µM. With O=C(CN1CC(C(=O)Nc2cncc3ccccc23)c2cc(Cl)ccc2C1=O)NCC1CCC1 (stereo not given) the IC50 was 0.107 µM. Work on NC(=O)C1Cc2nc[nH]c2CN1C(=O)CC1(C(=O)Nc2cncc3ccccc23)CCOc2ccc(Cl)cc21 (stereo not given) yielded an IC50 of 9.28 µM. Molecule O=C(Nc1cncc2ccccc12)C(CO)c1ccc(Cl)c(Cl)c1 (stereo not given) has an IC50 of 19.3 µM. O=C1OC2(CCOc3ccc(Cl)cc32)C(=O)N1c1cncc2ccccc12 (stereo not given) gave an IC50 of over 99.5 µM. O=C(NCc1ccccc1)[C@@H]1CN(C(=O)CCl)CCN1S(=O)(=O)c1ccsc1 (stereo in doubt) gave an IC50 of 0.501 µM. C=CC(=O)N(c1ccc(C(C)(C)C)cc1)C(C(=O)NCCc1cccc(F)c1)c1cccnc1 (stereo not given) showed an IC50 of 2.96 µM. O=C(/C=C/c1ccccc1)N1CCN(S(=O)(=O)c2cccc(F)c2)CC1 was tested, and the IC50 was over 99.5 µM. In the case of O=C(CCl)N1CCN(C(c2ccccc2)C2CCCCC2)CC1 (stereo not given), the IC50 is reported as 5.72 µM and 2.98 µM. Work on CCN(C)CCOc1ccc2cncc(N3CCC4(CN(S(=O)(=O)CC5(C#N)CC5)Cc5ccc(Cl)cc54)C3=O)c2c1 (stereo not given) yielded an IC50 of 0.401 µM. Molecule CN(C)c1ncc(C(C(=O)NCCc2cccc(F)c2)N(C(=O)c2cocn2)c2ccc(C(C)(C)C)cc2)cn1 (stereo not given) has an IC50 of over 99.5 µM. O=C(Cc1cc(Cl)cc(Nc2ccc(OC(F)F)cc2)c1)Nc1cncc2ccccc12 was tested, and the IC50 was 1.9 µM. Molecule O=C(NCCc1cccc(F)c1)C(c1cccnc1)N(C(=O)c1ccco1)c1cccc(CSC2CCOCC2)c1 (stereo not given) has an IC50 of over 99.5 µM. O=C(Nc1ccc2nccnc2c1)c1csc2cncn12 gave an IC50 of over 99.5 µM. For O=C(C1CCOc2cc(Cl)ccc21)N(Cc1c[nH]c(=O)[nH]c1=O)c1cncc2ccccc12 (stereo not given), the IC50 was 7.14 µM. With CC(=O)NCCc1c[nH]c2c(CN3CCN(C(=O)CCl)CC3)cccc12 the IC50 was 17.4 µM. O=C(c1cc(=O)[nH]c2ccccc12)N1CCN(c2cccc(C(F)(F)F)c2)CC1 gave an IC50 of 3.8 µM. COC(OC)C(=O)N1CCN(Cc2cccc(Cl)c2)CC1 was tested, and the IC50 was 93.9 µM and 94.3 µM. Molecule CC1(C(=O)Nc2cncc3ccc(F)cc23)CNS(=O)(=O)c2ccc(Cl)cc21 (stereo not given) has an IC50 of 0.441 µM. O=C(Cc1cc(Cl)cc(N2CCN(CCc3ccccc3)CC2)c1)Nc1cncc2ccccc12 was tested, and the IC50 was 5.02 µM. Work on O=C(Cc1cc(Cl)cc(N[C@H]2C(O)O[C@H](CO)[C@@H](O)[C@@H]2O)c1)Nc1cncc2ccccc12 (stereo in doubt) yielded an IC50 of 2.92 µM. Cc1ccncc1CC(=O)Nc1cccc(Cl)c1 gave an IC50 of 29.9 µM. For O=S(=O)(Cc1ccccc1F)c1oc(-c2ccc(F)cc2)nc1S(=O)(=O)c1ccccc1, the IC50 was 0.397 µM. Work on CN1CC(C#N)(CS(=O)(=O)N2Cc3ccc(Cl)cc3C(C(=O)Nc3cncc4ccccc34)C2)C1 (stereo not given) yielded an IC50 of 0.151 µM. Cc1ccccc1C(C)N(C(=O)c1cocn1)C(C(=O)NCCc1cccc(F)c1)c1cccnc1 (stereo not given) gave an IC50 of over 99.5 µM. Molecule O=C(Cc1cc(Cl)cc(Nc2ccc(Br)nc2)c1)Nc1cncc2ccccc12 has an IC50 of 1.94 µM. In the case of Cc1cccc(C2CCCCN2C(=O)C(C)c2cncnc2)c1C (stereo not given), the IC50 is reported as over 99.5 µM. Work on O=C(Cc1cccc(Cl)c1)N1Cc2ccccc2C(O)C1 (stereo not given) yielded an IC50 of 14.8 µM. Cc1cccc(C)c1NC(=O)[C@@H]1CN(C(=O)CCl)CCN1S(=O)(=O)c1ccsc1 (stereo in doubt) was tested, and the IC50 was 1.64 µM. N#CC1(CS(=O)(=O)N2Cc3ccc(Cl)cc3C3(CCN(c4cncc5ccc(F)cc45)C3=O)C2)CC1 (stereo not given) was tested, and the IC50 was 0.828 µM. With CC(C)(C)c1ccc(N(C(=O)c2nnc(O)cc2O)C(C(=O)NCCc2cccc(F)c2)c2cccnc2)cc1 (stereo not given) the IC50 was over 99.5 µM. O=C(Cc1cc(Cl)cc(OC2CCC(=O)N2)c1)Nc1cncc2ccccc12 (stereo not given) gave an IC50 of 85.9 µM. With O=C(Cc1cc(Cl)cc(Nc2cccc(Br)n2)c1)Nc1cncc2ccccc12 the IC50 was 1.92 µM. Work on O=C(Cc1cc(Cl)cc(Nc2ncc(F)cc2Br)c1)Nc1cncc2ccccc12 yielded an IC50 of 1.84 µM. With Cc1nocc1C(=O)N1Cc2ccc(Cl)cc2C(C(=O)Nc2cncc3ccccc23)C1 (stereo not given) the IC50 was 0.168 µM. In the case of CC(=O)c1ccccc1C(=O)N(c1ccc(C(C)(C)C)cc1)C(C(=O)NCCc1cccc(F)c1)c1cccnc1 (stereo not given), the IC50 is reported as over 99.5 µM. Work on O=C(Cc1cc(Cl)cc(Nc2ccc(Cl)nc2Cl)c1)Nc1cncc2ccccc12 yielded an IC50 of 2.31 µM. With Cc1ccc(-c2ccc(C(=O)N3CC[C@H](N)C3)c(F)c2)cc1 (stereo in doubt) the IC50 was over 99.5 µM. CC(=O)Nc1ccc2c(NC(=O)Cc3cccc(Cl)c3)cncc2c1 showed an IC50 of 0.392 µM. In the case of Cc1nc(CN2C(=O)C(=O)c3cc(Br)ccc32)cs1, the IC50 is reported as over 99.5 µM. Work on CCC(=O)Nc1ccc(N(C)C(=O)Cn2nnc3ccccc32)cc1 yielded an IC50 of over 99.5 µM. With CO[C@@H]1COC[C@H]1n1cc(C(=O)N(c2ccc(C(C)(C)C)cc2)C(C(=O)NCCc2cccc(F)c2)c2cccnc2)nn1 (stereo in doubt) the IC50 was over 99.5 µM. CCCc1cc2c(cc1S(=O)(=O)N1CCN(c3ccccc3OC)CC1)OCO2 showed an IC50 of over 99.5 µM. O=C(CCl)N1CCCN(S(=O)(=O)c2ccccc2F)CC1 gave an IC50 of 15.6 µM. Work on Cc1ccncc1NC(=O)N(Cc1ccccc1)c1cccc(Cl)c1 yielded an IC50 of 22.9 µM. O=C(Cc1cc(Cl)cc(Nc2ccc(C(F)(F)F)cn2)c1)Nc1cncc2ccccc12 showed an IC50 of 3.96 µM. In the case of COc1ccc(Cl)cc1OCCNC(=O)c1cc(=O)[nH]c2ccccc12, the IC50 is reported as over 99.5 µM. O=C(Cc1cc(Cl)cc(Nc2ccc(F)cc2C(F)(F)F)c1)Nc1cncc2ccccc12 was tested, and the IC50 was 1.56 µM. COC(=O)C1CC(NC(=O)C(c2cccnc2)N(C(=O)c2cocn2)c2ccc(C(C)(C)C)cc2)C1 (stereo not given) gave an IC50 of 3.99 µM. O=C(Nc1cccc2c[nH]nc12)C1CCOc2ccc(Cl)cc21 (stereo not given) showed an IC50 of over 99.5 µM. With CC(=O)Nc1ccc(Nc2cc(Cl)cc(CC(=O)Nc3cncc4ccccc34)c2)c(C(F)(F)F)c1 the IC50 was 2.09 µM. For C=CC(=O)NCCC(=O)N(Cc1ccccc1)Cc1nc2ccccc2c(=O)[nH]1, the IC50 was over 99.5 µM. With COc1cnc(C#N)nc1 the IC50 was over 99.5 µM. O=c1c2ccccc2c(-c2ccc(Br)cc2)nn1CC(O)CN1CCOCC1 (stereo not given) showed an IC50 of over 99.5 µM. O=C(NCc1cccc(Cl)c1)c1cncc2ccccc12 showed an IC50 of 32 µM. CC(C)(C)c1ccc(N(C(=O)C2CCCO2)C(C(=O)NCCc2cccc(F)c2)c2cccnc2)cc1 (stereo not given) was tested, and the IC50 was 5.56 µM. N#CCc1cccc(NC(=O)c2cnn3cc(Br)cnc23)n1 was tested, and the IC50 was over 99.5 µM. For COCc1ccc(N(C(=O)c2cnc[nH]2)C(C(=O)NCCc2cccc(F)c2)c2cccnc2)cc1 (stereo not given), the IC50 was 62.9 µM. Work on O=C(Cc1cc(Cl)cc(Nc2ccn([C@H]3C[C@H](O)[C@@H](CO)O3)c(=O)n2)c1)Nc1cncc2ccccc12 (stereo in doubt) yielded an IC50 of 1.84 µM. In the case of COc1ccc2c(N)nn(C(=O)Cc3cccc(Cl)c3)c2c1, the IC50 is reported as over 99.5 µM. Molecule CC(NCc1cnc2c(cnn2C)c1)c1nc2ccccc2s1 (stereo not given) has an IC50 of over 99.5 µM. CS(=O)(=O)c1ccc2c(NC(=O)C3CCOc4ccc(Cl)cc43)cncc2c1 (stereo not given) showed an IC50 of 0.427 µM. CC(C)(C)c1ccc(N(C(=O)c2ccc(O)c(=O)o2)C(C(=O)NCCc2cccc(F)c2)c2cccnc2)cc1 (stereo not given) was tested, and the IC50 was 76.5 µM. For CC(C)(C)c1ccc(N(C(=O)c2ccco2)C(C(=O)NCCc2cccc(F)c2)c2cncc3ccccc23)cc1 (stereo not given), the IC50 was 0.403 µM.
